The text below walks through data of patent publication US8318949B2, “Organic compounds” (Novartis AG, priority 2008, dated 2012).

For orientation: melting point means the temperature, or range, at which the solid turns liquid.

Each structure is given as a SMILES string.

Turning to `Cc1nc(N2CCN(CC3CC3(F)F)C2=O)sc1C(=O)NCc1cccnc1` (stereo not drawn) [Example 16, 2-(3-((2,2-difluorocyclopropyl)methyl)-2-oxoimidazolidin-1-yl)-4-methyl-N-(pyridin-3-ylmethyl)thiazole-5-carboxamide], the melting point is 169 to 171 °C.
In turn, `Cc1cc(CNC(=O)c2sc(N3CCN(Cc4ccc(F)cc4)C3=O)nc2C)[nH]n1` [Example 2.2, 2-(3-(4-fluorobenzyl)-2-oxoimidazolidin-1-yl)-4-methyl-N-((3-methyl-1H-pyrazol-5-yl)methyl)thiazole-5-carboxamide] yielded a melting point of 225 to 226 °C.
Then `Cc1nc(-n2cnn(CC3CC3)c2=O)sc1C(=O)NCc1cocn1` [Example 14.2, 2-(1-(cyclopropylmethyl)-5-oxo-1H-1,2,4-triazol-4(5H)-yl)-4-methyl-N-(oxazol-4-ylmethyl)thiazole-5-carboxamide], with 157 to 158 °C; and `Cc1cc(CNC(=O)c2sc(N3C[C@@H](C)N(Cc4ccc(F)cc4)C3=O)nc2C)[nH]n1` [Example 2.9, (R)-2-(3-(4-fluorobenzyl)-4-methyl-2-oxoimidazolidin-1-yl)-4-methyl-N-((3-methyl-1H-pyrazol-5-yl)methyl)thiazole-5-carboxamide], with 215 to 216 °C; and `Cc1nc(N2CCN(Cc3ccc(F)cc3)C2=O)sc1C(=O)NCc1csc(C(C)C)n1` [Example 16.4, 2-(3-(4-fluorobenzyl)-2-oxoimidazolidin-1-yl)-N-((2-isopropylthiazol-4-yl)methyl)-4-methylthiazole-5-carboxamide], with 170 to 172 °C.
Then `Cc1nc(N2C[C@H](C)N(Cc3ccc(F)cc3)C2=O)sc1C(N)=O` [Example 1.3, (S)-2-(3-(4-fluorobenzyl)-4-methyl-2-oxoimidazolidin-1-yl)-4-methylthiazole-5-carboxamide], with 192 to 194 °C.
`Cc1nc(N2CCN(CC(C)C)C2=O)sc1C(=O)NCc1cnn(C)c1` [Example 12.21, 2-(3-isobutyl-2-oxoimidazolidin-1-yl)-4-methyl-N-((1-methyl-1H-pyrazol-4-yl)methyl)thiazole-5-carboxamide] yielded a melting point of 155 to 158 °C.
For `Cc1nc(N2CCN(CC3CC3(F)F)C2=O)sc1C(=O)NCc1cncs1` (stereo not drawn) [Example 16.2, 2-(3-((2,2-difluorocyclopropyl)methyl)-2-oxoimidazolidin-1-yl)-4-methyl-N-(thiazol-5-ylmethyl)thiazole-5-carboxamide] the value was 182 to 184 °C.
`Cc1cncc(CNC(=O)c2sc(N3CCN(CCCC(F)(F)F)C3=O)nc2C)n1` [Example 12.6, 4-methyl-N-((6-methylpyrazin-2-yl)methyl)-2-(2-oxo-3-(4,4,4-trifluorobutyl)imidazolidin-1-yl)thiazole-5-carboxamide] gave a melting point of 123 °C.
For `Cc1nc(N2CCN(Cc3ccccc3)C2=O)sc1C(N)=O` [Example 10, 2-(3-benzyl-2-oxoimidazolidin-1-yl)-4-methylthiazole-5-carboxamide] the value was 217 to 218 °C; for `Cc1nc(-n2cnn(Cc3ccc(F)cc3)c2=O)sc1C(=O)NCc1csc(C(C)C)n1` [Example 16.7], 151 to 153 °C; for `Cc1nc(N2CCN(Cc3ccc(F)c(F)c3)C2=O)sc1C(N)=O` [Example 1.7, 2-(3-(3,4-difluorobenzyl)-2-oxoimidazolidin-1-yl)-4-methylthiazole-5-carboxamide], 221 to 223 °C.
`Cc1nc(N2CCN(CC3CC3(F)F)C2=O)sc1-c1cc[nH]n1` (stereo not drawn) [Example 17, 1-((2,2-difluorocyclopropyl)methyl)-3-(4-methyl-5-(1H-pyrazol-3-yl)thiazol-2-yl)imidazolidin-2-one] yielded a melting point of 227 to 230 °C.
Then `Cc1cc(CNC(=O)c2sc(-n3cnn(Cc4ccc(F)cc4)c3=O)nc2C)[nH]n1` [Example 2.3, 2-(1-(4-Fluorobenzyl)-5-oxo-1H-1,2,4-triazol-4(5H)-yl)-4-methyl-N-((3-methyl-1H-pyrazol-5-yl)methyl)thiazole-5-carboxamide], with 234 to 235 °C; and `Cc1nc(N2CCN(CC3CC3(F)F)C2=O)sc1C(=O)NCc1ncco1` (stereo not drawn) [Example 16.1, 2-(3-((2,2-difluorocyclopropyl)methyl)-2-oxoimidazolidin-1-yl)-4-methyl-N-(oxazol-2-ylmethyl)thiazole-5-carboxamide], with 156 to 158 °C; and `Cc1nc(N2C[C@@H](C)N(Cc3ccc(F)cc3)C2=O)sc1C(=O)NCc1ccc(F)c(F)c1` [Example 2.6, (R)-N-(3,4-difluorobenzyl)-2-(3-(4-fluorobenzyl)-4-methyl-2-oxoimidazolidin-1-yl)-4-methylthiazole-5-carboxamide], with 134 to 135 °C.
In turn, `Cc1nc(-n2cnn(CC3CC3(F)F)c2=O)sc1C(=O)NCc1cccnc1` (stereo not drawn) [Example 15, 2-(1-((2,2-difluorocyclopropyl)methyl)-5-oxo-1H-1,2,4-triazol-4(5H)-yl)-4-methyl-N-(pyridin-3-ylmethyl)thiazole-5-carboxamide] yielded a melting point of 160 to 161 °C.
Compound `COc1ccc(CN2CCN(c3nc(C)c(C(N)=O)s3)C2=O)cc1F` [Example 1.11, 2-(3-(3-fluoro-4-methoxybenzyl)-2-oxoimidazolidin-1-yl)-4-methylthiazole-5-carboxamide] had a melting point of 182 to 184 °C.
Then `Cc1nc(N2C[C@@H](C)N(Cc3ccc(F)cc3)C2=O)sc1C(N)=O` [Example 1.15, (R)-2-(3-(4-fluorobenzyl)-4-methyl-2-oxoimidazolidin-1-yl)-4-methylthiazole-5-carboxamide], with 185 to 186 °C; and `Cc1nc(N2CCN(CCC3CC3)C2=O)sc1-c1cc[nH]n1` [Example 8, 1-(2-cyclopropylethyl)-3-(4-methyl-5-(1H-pyrazol-3-yl)thiazol-2-yl)imidazolidin-2-one], with 147 to 149 °C; and `Cc1nc(N2C[C@@H](C)N(Cc3ccc(F)cc3)C2=O)sc1C(=O)NCc1cc(F)cc(F)c1` [Example 2.10, (R)-N-(3,5-difluorobenzyl)-2-(3-(4-fluorobenzyl)-4-methyl-2-oxoimidazolidin-1-yl)-4-methylthiazole-5-carboxamide], with 159 to 160 °C.
Take `Cc1nc(-n2cnn(CCC3CC3)c2=O)sc1C(=O)NCc1cccnc1` [Example 13, 2-(1-(2-cyclopropylethyl)-5-oxo-1H-1,2,4-triazol-4(5H)-yl)-4-methyl-N-(pyridin-3-ylmethyl)thiazole-5-carboxamide]: the melting point was in the range of 139 to 140 °C.
Consider `Cc1nc(N2CCN(CC3CC3)C2=O)sc1C(=O)NCc1cncc(F)c1` [Example 12, 2-(3-(cyclopropylmethyl)-2-oxoimidazolidin-1-yl)-N-((5-fluoropyridin-3-yl)methyl)-4-methylthiazole-5-carboxamide], for which the melting point fell in the range of 144 to 145 °C.
`Cc1cc(-c2sc(N3CCN(CC4CC4)C3=O)nc2C)n[nH]1` [Example 6, 1-(cyclopropylmethyl)-3-(4-methyl-5-(5-methyl-1H-pyrazol-3-yl)thiazol-2-yl)imidazolidin-2-one] gave a melting point of 231 to 233 °C.
